Measured values as given in patent publication US20160106727A1, “COMPOSITION AND METHOD FOR THE TREATMENT OF NEURODEGENERATION” (Wright State University, priority 2011, published 2016).

Tested on: neurogenesis in the subventricular zone of the lateral brain ventricles
Test: Adult neurogenesis by doublecortin staining after two weeks of daily oral treatment
Format: in vivo, male Wistar rats
Details: for Fold increase in neurogenesis over vehicle control: anterior subventricular zone
[1] = doublecortin staining, two weeks daily oral

Description: Animals, more specifically, male Wistar rats were used to measure differences in neurogenesis in the subventricular zone of the lateral brain ventricles in response to the various drug treatments using doublecortin primary antibody to measure neurogenesis.
The male Wistar rats aged approximately one year old were used, wherein a doublecortin antibody was used to measure neurogenesis with a horseradish peroxidase labeled secondary antibody developed with 3,3′-Diaminobenzidine (DAB).
Wherein, the male Wistar rats were given voluntary oral drug treatments daily for a two week period.
For example, four groups of Wistar rats, n=6 in each, were given a vehicle control or one of three drug compositions which are voluntary orally administered for a period of two weeks, euthanized and the brain dissected for immunohistochemistry.
Specifically, all dissected animal brains were blocked and post fixed for 24 hours in 4% paraformaldehyde in PBS at 5° C. The brains were then put into 30% sucrose in PBS at 5° C. for at least 3 days and then cut on a cryostat into 50 micron coronal sections. The sections were collected into PBS, blocked for one hour with PBS containing 1% Tween and 3% secondary antibody host serum, then reacted with doublecortin primary antibody, 1:500 dilution in blocking solution. […] Free-floating sections were washed with 3 washes of PBS containing 0.1% Tween, then incubated in the dark with secondary antibodies, Cy3-labeled Donkey anti-rabbit IgG, FITC-labeled Donkey anti-sheep IgG; Jackson Immunology, at a 1:100 dilution in blocking solution for 2.5 hours at room temperature or a Vector ABC elite horseradish peroxidase DAB kit was used according to kit instructions, mounting the final washed sections on gel-subbed slides. Sections with fluorescent secondary antibodies were washed three times with PBS containing 0.1% Tween and then the sections were mounted on gel-subbed slides.
ANOVA (analysis of variance) was used for statistical analysis.

Compound: CNCCC(Oc1ccc(C(F)(F)F)cc1)c1ccccc1 (stereo not shown) [fluoxetine]
- Fold increase in neurogenesis over vehicle control [1]: approximately 10 fold
- Fold increase in neurogenesis over vehicle control (doublecortin staining, two weeks daily oral, listed as Fluoxetine): 10 fold
- Neurogenesis compared to vehicle control (in words) [1]: significant increase in neurogenesis
- Area of doublecortin staining (mean) (subventricular zone of anterior lateral ventricles, daily voluntary oral treatment for two weeks, FIG. 1E): 0.5727 mm^2
